{
  "source": "patent US11331318B2",
  "about": "“Arterial oxygen saturation degree improver” (FURUKAWA RESEARCH OFFICE CO., LTD., priority 2017, dated 2022)",
  "key": {"[1]": {"system": "human subjects in normobaric hypoxic room (oxygen concentration 12.4 to 12.7%)", "assay": "SpO2 and heart rate in a normobaric hypoxic room before and after administration of orotic acid", "format": "in vivo", "experimental": "A person (subject A) entered a normobaric hypoxic room (oxygen concentration: 12.4 to 12.7%, equivalent to that at an altitude of about 4000 m, 23° C.) of Miura Dolphins and was then administered with 400 mg of orotic acid by repeating twice a method (sublingual administration) in which a mixture (400 mg) of free form orotic acid (manufactured by Kyowa Hakko Bio Co., Ltd., 200 mg) and L-carnitine (manufactured by Lonza Japan Ltd., 200 mg) wrapped in wafer paper was placed under the tongue and allowed to stay in the mouth for at least 30 seconds, and the SpO2 and heart rate were measured using a pulse oximeter PULSOX-300i (manufactured by Konica Minolta, Inc.). Incidentally, in this example, carnitine was used for enhancing the solubility of orotic acid in water (absorbability into oral mucosa (see Japanese unexamined Patent Application Publication No. 2015-43743). Subject A was required not to consciously change their breathing after entering the room. Three subjects ([subject A: the same subject as that Example 1], [subject B], and [subject C]) were subjected to a test according to the method described in [Test method 1] above. Subject A was subjected to examination of swallowing (oral administration) two tablets each containing 200 mg of free form orotic acid monohydrate (manufactured by Kyowa Hakko Bio Co., Ltd.) (400 mg of orotic acid in total) for comparison with sublingual administration. In this test, the oxygen concentration in the room was stable within a range of 12.4% to 12.7% throughout the test period."}, "[2]": {"system": "healthy women performing bike exercise", "assay": "Change in energy consumption after bike exercise", "format": "in vivo, human", "conditions": "one tablet (200 mg) before exercise", "experimental": "Six 22-year-old healthy women were divided into three groups of two. All the women were fasted for 24 hours (allowed only to drink water or tea), and two women of one group ingested one tablet of the orotic acid-containing throat candy (OA mouth-dissolving tablet), two women of another group ingested one tablet of the free form orotic acid monohydrate-containing tablets manufactured in Example 2 (OA tablet), and two women of the remaining group ingested one tablet of the placebo throat candy (non-ingestion), and the women performed bike exercise (exercise intensity: […]) for 30 minutes. Changes in energy consumption and changes in plasma uric acid level were measured at 2 hours, 3 hours, and 4 hours after completion of the exercise by the following measuring method. Exhalation was analyzed at immediately after completion of exercise and at 2 hours, 3 hours, and 4 hours after completion of exercise with AERO MONITOR AE 300S manufactured by Minato Medical Science Co., Ltd. Oxygen uptake volume and carbon dioxide production volume were measured, and the energy consumption (kcal/day) was determined by the following expression (1) to calculate the change in energy consumption. Energy consumption (kcal/day)=(3.9×oxygen uptake volume)+(1.1×carbon dioxide production volume) (1) Method for Measuring Change in Plasma Uric Acid Level"}, "[3]": {"system": "healthy women performing bike exercise", "assay": "Change in plasma uric acid level after bike exercise (uricase-POD method)", "format": "in vivo, human", "conditions": "non-ingestion group increase of 0.2 mg/dL", "experimental": "Six 22-year-old healthy women were divided into three groups of two. All the women were fasted for 24 hours (allowed only to drink water or tea), and two women of one group ingested one tablet of the orotic acid-containing throat candy (OA mouth-dissolving tablet), two women of another group ingested one tablet of the free form orotic acid monohydrate-containing tablets manufactured in Example 2 (OA tablet), and two women of the remaining group ingested one tablet of the placebo throat candy (non-ingestion), and the women performed bike exercise (exercise intensity: […]) for 30 minutes. Changes in energy consumption and changes in plasma uric acid level were measured at 2 hours, 3 hours, and 4 hours after completion of the exercise by the following measuring method. The uric acid concentrations (mg/dL) at immediately after completion of exercise and at 4 hours after completion of exercise were determined by allowing peroxidase (POD) to act on hydrogen peroxide (H2O2), generated by oxidative decomposition of uric acid in a sample by the action of uricase, in the presence of 4-aminoantipyrine (4-AA) and a color former for oxidative condensation to generate a quinone dye (uricase-POD method). The resulting quinone dye is colorimetrically measured to calculate the change in plasma uric acid level."}, "[4]": {"system": "person suspected of having sleep apnea syndrome (SAS)", "assay": "SpO2 at apnea or hypopnea state in a person suspected of having sleep apnea syndrome", "format": "in vivo, human", "conditions": "one tablet of orotic acid-containing throat candy at bedtime, oral absorption", "text": "A person suspected of having sleep apnea syndrome (SAS) ingested one tablet of the placebo throat candy manufactured in Example 3 at bedtime, and the maximum time of sleep apnea (a state in which breathing stops for 10 seconds of more) or hypopnea (a state in which ventilation by breathing falls to 50% or less for 10 seconds or more), which are detected with testing equipment for sleep apnea syndrome lent from a medical corporation Koshikai Ginza Yasue Clinic, and the SpO2 level at that time was measured two nights by the method in Example 1 (these levels are written by numerical numbers in the diagnostic results analyzed by the clinic software). The women then ingested one tablet of the orotic acid-containing throat candy manufactured in Example 3 at bedtime, and the maximum time of sleep apnea or hypopnea state and the SpO2 level at that time was measured by the same method as above two nights. In FIG. 6, the results in ingestion of one tablet of placebo throat candy are shown by round-shaped plots, and the results in ingestion of one tablet of orotic acid-containing throat candy are shown by diamond-shaped plots."}, "ddY male mice [5]": {"system": "ddY male mice", "assay": "Oxygen consumption during non-exercise in mice (reference example 1)", "format": "in vivo, mouse", "conditions": "5 times a week for 4 weeks", "experimental": "In order to verify whether orotic acid has an effect of decreasing the oxygen consumption during non-exercise or not, the following test was performed. Thirty-two ddY male mice (6-week old) bred in a thermostatic animal chamber of 24±2° C. for one week or more under a light-dark cycle of 12 hours (lighting from 8:00 to 20:00) were prepared. These mice were divided into two groups. Each mouse in one group (control group: CTL group) was administered with 0.5 mass % carboxymethyl cellulose solution (CMC solution) in an amount of 10 mL per 1 kg of mouse body weight. Each mouse in the other group (orotic acid administration group: OA group) was administered with orotic acid (50 mg/mL) suspended in 0.5 mass % CMC solution in an amount of 10 mL per 1 kg of mouse body weight. These administrations were performed 5 times a week for successive 4 weeks (20 times in total) for each mouse. Each mouse was transferred to a metabolism measurement chamber at 19:00 on the day of last administration to start fasting, and the oxygen consumption (VO2 [mL/min]) and carbon dioxide production volume (VCO2 [mL/min]) during the dark period from 20:00 to 8:00 on the following day were measured. […] In addition, the respiratory quotient (RER) of each mouse was calculated as a value obtained by dividing the carbon dioxide production volume by the oxygen consumption."}, "ddY male mice [6]": {"system": "ddY male mice", "assay": "Oxygen consumption during forced treadmill exercise in mice (reference example 2)", "format": "in vivo, mouse", "conditions": "5 times a week for 3 weeks", "experimental": "In order to verify whether orotic acid has an effect of decreasing the oxygen consumption during exercise or not, the following test was performed. Twenty-four ddY male mice (6-week old) bred in a thermostatic animal chamber of 24±2° C. for one week or more under a light-dark cycle of 12 hours (lighting from 8:00 to 20:00) were prepared. These mice were divided into two groups. Each mouse in one group, CTL group, was administered with 0.5 mass % CMC solution in an amount of 10 mL per 1 kg of mouse body weight. Each mouse in the other group, OA group, was administered with 50 mg/mL of orotic acid suspended in 0.5 mass % CMC solution in an amount of 10 mL per 1 kg of mouse body weight. These administrations were performed 5 times a week for successive 3 weeks (15 times in total) for each mouse. Fasting of each mouse was started at 17:00 on the day of last administration. The mice were subjected to forced exercise using a mouse treadmill from 10:00 on the following day, and the oxygen consumption and the carbon dioxide production volume during exercise were measured. Incidentally, the forced exercise was performed for 30 minutes in total at a speed of 15 m/min for first 5 minutes, at a speed of 20 m/min for the following 5 minutes, and then at a speed of 25 m/min for 20 minutes. […] In addition, the respiratory quotient of each mouse was calculated as a value obtained by dividing the carbon dioxide production volume by the oxygen consumption."}, "male ddY mice": {"system": "male ddY mice", "assay": "Limit swimming time in mice (reference example 3)", "format": "in vivo, mouse", "experimental": "The endurance-enhancing effect was verified using orotic acid as a test substance. Seven-week old male ddY mice were purchased from Japan SLC, Inc. and were each acclimatized for 7 days and then forced to swim with a weight on the tail. When a mouse could not come up to the water surface and stayed under the surface of the water for 5 seconds, the time thereof was measured as the limit swimming time. The mice were divided into groups, such that there was no difference in limit swimming time between the groups, as follows: control group (CTL group, n=10), orotic acid 250 mg/kg administration group (OA 250 mg/kg group, n=10), and orotic acid 500 mg/kg administration group (OA 500 mg/kg group, n=10). The mice in each group were bred using roughage (CE-2), and the mice in OA 250 mg/kg group and OA 500 mg/kg group were orally administered with 250 mg/kg of orotic acid and 500 mg/kg of orotic acid, respectively, five times a week. After the grouping, the limit swimming time in each group was measured once a week while being bred for 3 weeks."}},
  "data": [
    {"smiles": "O=C(O)c1cc(=O)[nH]c(=O)[nH]1", "note": "[orotic acid]", "values": [
      {"measurement": "heart rate", "setting": "[1]; subject A, 400 mg oral", "result": "did not have a considerable irregularity in heart rate"},
      {"measurement": "sense of discomfort felt to be caused by hypoxia", "setting": "[1]; subject A, 400 mg oral", "result": "merely slightly improved"},
      {"measurement": "recovery of SpO2 level after oral administration", "setting": "[1]; subject A, 400 mg oral (two swallowed tablets of free form orotic acid monohydrate), SpO2 decreased to 84%", "result": "hardly recovered"},
      {"measurement": "SpO2 level about 30 minutes after sublingual administration", "setting": "[1]; subject A, 400 mg orotic acid sublingual (mixed with L-carnitine, in wafer paper), SpO2 83% to 84% before administration", "result": 88, "unit": "%"},
      {"measurement": "SpO2 level stably maintained until leaving the room", "setting": "[1]; subject A, 400 mg sublingual", "result": "about 88%"},
      {"measurement": "heart rate", "setting": "[1]; subject A, 400 mg sublingual", "result": "no considerable irregularity in heart rate"},
      {"measurement": "sense of discomfort felt to be caused by hypoxia", "setting": "[1]; subject A, 400 mg sublingual", "result": "disappeared soon after ingestion of orotic acid"},
      {"measurement": "time for which the increased SpO2 level was stably maintained", "setting": "[1]; subject A, 400 mg sublingual, until leaving the room", "result": "at least 5 hours"},
      {"measurement": "heart rate before and after administration", "setting": "[1]; subject B, 400 mg sublingual", "result": "hardly changed"},
      {"measurement": "symptoms such as light sleepiness and reduced concentration", "setting": "[1]; subject B, 400 mg sublingual", "result": "cancelled"},
      {"measurement": "SpO2 level recovered after sublingual administration", "setting": "[1]; subject B, 400 mg sublingual, SpO2 82% before, increased at about 30 minutes after administration", "result": 86, "unit": "%"},
      {"measurement": "symptoms of altitude sickness, such as headache and bad feeling", "setting": "[1]; subject C, 200 mg sublingual", "result": "disappeared"},
      {"measurement": "SpO2 level recovered after sublingual administration", "setting": "[1]; subject C, 200 mg sublingual at 2 hours and 40 minutes after entering the room", "result": "higher than 80%"},
      {"measurement": "recovery of SpO2 level", "setting": "[1]; subject C, 400 mg swallowed before dissolution of wafer paper (same as oral administration), SpO2 decreased to 70%", "result": "no recovery in the SpO2 level was observed"},
      {"measurement": "decrease in energy consumption at 2, 3 and 4 hours after bike exercise compared to immediately after exercise", "setting": "[2]; oral absorption as throat candy", "result": "remarkable compared to that when orotic acid was ingested by oral administration"},
      {"measurement": "energy consumption at 2, 3 and 4 hours after bike exercise compared to immediately after exercise", "setting": "[2]; oral administration", "result": "decreased"},
      {"measurement": "change of uric acid concentration between immediately after exercise and 4 hours after exercise (decrease)", "setting": "[3]; orotic acid ingested by oral absorption as throat candy", "result": 0.05, "unit": "mg/dL"},
      {"measurement": "change of uric acid concentration between immediately after exercise and 4 hours after exercise (increase)", "setting": "[3]; orotic acid ingested by oral administration", "result": 0.1, "unit": "mg/dL"},
      {"measurement": "SpO2 level at the same apnea time, compared with no orotic acid (placebo throat candy)", "setting": "[4]", "result": "higher than that when orotic acid was not ingested"},
      {"measurement": "respiratory quotient (RER) compared to control group", "setting": "ddY male mice [5]", "result": "not a significant difference"},
      {"measurement": "carbon dioxide production volume (VCO2) compared to control group", "setting": "ddY male mice [5]; dark period", "result": "significantly decreased"},
      {"measurement": "oxygen consumption (VO2) compared to control group", "setting": "ddY male mice [5]; dark period, orotic acid 50 mg/mL suspension 10 mL/kg", "result": "significantly decreased"},
      {"measurement": "carbon dioxide production volume (VCO2) compared to control group", "setting": "ddY male mice [6]", "result": "significantly decreased"},
      {"measurement": "respiratory quotient (RER) compared to control group", "setting": "ddY male mice [6]", "result": "not a significant difference"},
      {"measurement": "oxygen consumption (VO2) compared to control group", "setting": "ddY male mice [6]; orotic acid 50 mg/mL suspension 10 mL/kg", "result": "significantly decreased"},
      {"measurement": "effect of oral administration on the day of administration or within one week", "setting": "male ddY mice; experiments using mice, oral administration, at least three weeks needed for a significant difference", "result": "not observed"},
      {"measurement": "limit swimming time", "setting": "male ddY mice; oral 250 mg/kg and 500 mg/kg, five times a week, 3 weeks", "result": "prolonged depending on the dose of orotic acid"}
    ]}
  ]
}
